One assay has as its system pAxl (Y779). As to the kind of experiment: pAxl(Y779) in AML cell panel, short term treatment, flow cytometry. The format is cell-based, human. The note with it: 1 hour. Here is the method:
(§1) Staining of Cells for Flow Cytometry, General Protocol: • Live cells were centrifuged at 300 G for 5 minutes, washed once with PBS and centrifuged again. Cells were then fixed in 4% PFA in PBS for 10 minutes at 37° C., and resuspended in PBS. Unless processed immediately, samples were at this point stored in PBS at 4° C. (up to three weeks) or at −80° C. (for long-term storage). If intracellular epitopes were stained, cells were permebealized in 90% MeOH for 30 minutes on ice. Unless processed immediately, samples were also be stored in 90% MeOH at −20° C. for up to two months. • Further staining procedure (permebealized or non-permebealized cells): • Cells were washed 1× in PBS and blocked in blocking buffer; either PBS+0.5% BSA or PBS+1:1000 Octagam (5 mg/ml) for 15 minutes at room temperature. Thereafter, cells were incubated with primary AB at the indicated dilutions in incubation buffer (IB, PBS+0.5% BSA) for 1 hour at room temperature. Cells were then washed 3× with IB and incubated with secondary AB (conjugated to a fluorescent flurophore) at 1:1000 dilution in IB for 30 minutes at room temperature. Finally, cells were washed 3× in IB and resuspended in PBS. Cells were analyzed immediately, or stored for up to 24 hours at 4° C. before analysis. • Analysis of cells was done on a BD LSR Fortessa or a BD C6 Accuri flow cytometer, and further processing was done using FlowJo v.7.6. • All incubation steps (but not storage) were done on a spinning wheel or gentle shaker.
(§2) The diversity of AML cells and their responses was investigated using a panel of AML cell lines and assessing their responses after BGB324-treatment.
(§3) When investigating phospho-markers, the cells were starved overnight in the appropriate growth medium containing 0.1% FBS, pre-treated with BGB324 at 0.5 and 1 μM for one hour, and stimulated with 10% FBS for 20 minutes (to induce phosphorylation, with BGB324 present). Cells were then fixed and stained for flow cytometric analyses.

A further assay relates to total Axl. As to the kind of experiment: Total Axl by flow cytometry in MOLM13 cells (Example 2). The format is cell-based, human. To be noted: MOLM13 starved, 3 μM, 40 minutes. Here is the method:
as §1, with “Cells were then washed 3× with IB and incubated with secondary AB (conjugated to a fluorescent flurophore) at 1:1000 dilution in IB for 30 minutes at room temperature. Finally, cells were washed 3× in IB and resuspended in PBS.” left out, “shaker. […]” for “shaker.”

The test system of the next assay is Mv4-11 cells. In words: IC50 of BGB324 by resazurin assay, Mv4-11. The format is cell-based. To be noted: Homo sapiens, Mv4-11 (responder).
Text: as §2

The subject of a further assay is pErk. In words: pErk in AML cell panel, short term treatment, flow cytometry. The format is cell-based, human. On the procedure: as §1, §2, §3
The subject of the next assay is pAkt. As to the kind of experiment: pAkt in CD33-positive cells, MOLM13 systemic xenograft model, flow cytometry. The format is in vivo, mice. The note with it: both tissues (spleens and bone marrows), 50 mg/kg for 4 days; change not significant. Here is the method:
(§4) Material from an in vivo MOLM13 systemic model was also evaluated by flow cytometry. Expression of the previously evaluated biomarkers was examined in cells isolated from bone marrows and spleens of animals with systemic AML disease (MOLM13, inoculated for 7 days prior to treatment) treated with BGB324 at 50 mg/kg for 4 days. The spleens analysed were from the same study that was analysed by microarray, as mentioned above. The bone marrows were from an identical study that was done at a later time point to get more material for flow analyses.
(§5) Cells isolated from spleens and bone marrows were assessed for phosphorylation of Erk, PLCγ1 and Akt, and expression of PHGDH and SLFN11. The samples were also co-stained with CD33, and biomarker expression was only evaluated in CD33-positive cells.

The next assay has as its system Akt(S473). As to the kind of experiment: pAkt(S473) in blood of healthy volunteers treated ex vivo. The format is cell-based, human. To be noted: blood of two healthy volunteers, 1 μM, 30 minutes ex vivo; signal very low, disregarded as false. On the procedure: Staining of Blood for Flow Cytometry, General Protocol: • Human blood from healthy donors was collected in the presence of sodium citrate and mixed with 20 volumes of pre-warmed BD phosflow lyse/fix buffer (diluted to 1× in destilled water), followed by incubation in 37° C. water bath for 10 minutes. Cells were spun at 500 g for 8 minutes and washed once with PBS. • Cells were permebilized by adding 70% MeOH followed by 30 min incubation on ice. Unless processed immediately, samples were at this point stored in MeOH at −20° C. for up to 4 weeks. • Staining of permeabilized cells: • Cells were spun at 600 g, washed twice and resuspended in IB. Cells were aliquoted into volums corresponding to 100 ul collected blood (before dilution), and stained as described above (section two in “Staining of cells for flow cytometry, general protocol”). • All washing and incubation steps were done on a spinning wheel or gentle shaker.
Blood samples from BGB324-treated individuals were not available, so BGB324-treatment was simulated by incubating fresh unfixed blood samples with 1 μM BGB324 for 30 minutes before fixation. Thereafter, samples were fixed, permebealized, and stained for flow with pAxl and pAkt antibodies to examine whether we could see a response to BGB324-treatment in these biomarkers (see FIG. 7). Phosphatase-treated cells were included as a negative staining control.

Another assay relates to PHGDH. In words: PHGDH in CD33-positive cells, MOLM13 systemic xenograft model, flow cytometry. The format is in vivo, mice. To be noted: 50 mg/kg for 4 days. Here is the method: as §4, §5
For a further assay, the system named is totPLCγ1. In words: Total PLCγ1 in AML cell panel, long-term treatment, flow cytometry. The format is cell-based, human. Here is the method:
as §1, §2
Long-term treatment was done in complete medium, without starvation. The responders were treated with 0.05, 0.1 or 0.3 μM BGB324, whereas the non-responders were treated with only a single dose of 2.5 μM BGB324. The cells were fixed after 24, 48 or 72 hours, and the samples were stored in 90% MeOH at −20° C. until all samples were harvested, and stained for flow at the same time.

Assay [1] relates to MOLM13 systemic xenograft. As to the kind of experiment: Leukemic (CD33/CD45-positive) cells in MOLM13 systemic xenograft model. The format is in vivo, mice. The note with it: 50 mg/kg for 4 days. On the procedure: as §4
Cells harvested from spleens, blood and bone marrows of the animals were stained with anti CD33 and CD45 antibodies, to determine if systemic disease was established. CD33/CD45-positive cells were found in spleens (around 10-15%), bone marrows (35-40%) and in the blood (2-6%) of the animals, confirming that the disease was established.

`Nc1nc(Nc2ccc3c(c2)CC[C@@H](N2CCCC2)CC3)nn1-c1cc2c(nn1)-c1ccccc1CCC2` [BGB324, 1-(6,7-dihydro-5H-benzo[6,7]cyclohepta[1,2-c]pyridazin-3-yl)-N3-((7-(S)-pyrrolidin-1-yl)-6,7,8,9-tetrahydro-5H-benzo[7]annulene-2-yl)-1H-1,2,4-triazole-3,5-diamine]: the pAxl result is recorded as “no response to treatment” in the assay on pAxl (Y779) (Kasumi, 0.5 and 1 μM); “slight (but significant) reduction of pAxl” with pAxl (Y779) (OCI-M1, highest treatment dose). Moreover, the “phosphorylation of Axl at Y779” value in the assay on pAxl (Y779) (MOLM13, 0.5 and 1 μM) is given as “significantly reduced”; in the assay on pAxl (Y779) (Mv4-11, 0.5 and 1 μM), “significantly reduced”. For the same compound, the “Total Axl expression” value in the assay with total Axl is reported as “did not change”. In the assay on Mv4-11 cells, this compound came in with an IC50 of 140 nM. Besides, the pErk entry in the assay on pErk (Kasumi, 1 hour) is recorded as “no significant differences in pErk”; in the assay with pErk (OCI-M1, 1 hour) it was “no significant differences in pErk”. Also, the “phosphorylation of Erk” value in the assay with pErk (MOLM13, all treatment doses, 1 hour) is “strong and significant reduction”; with pErk (Mv4-11, all treatment doses, 1 hour), “strong and significant reduction”. Besides, the pAkt entry with pAkt is “went down”; in the assay on Akt(S473), “very slight reduction in pAkt”. The PHGDH expression result in the assay on PHGDH (bone marrows) and in the assay on PHGDH (spleens) was “significant reduction” in each case. Besides, the PLCγ1 expression result is recorded as “significant increase of PLCγ1 expression” in the assay with totPLCγ1 (Kasumi, 2.5 μM, 48 and 72 hours); “significant increase of PLCγ1 expression” in the assay on totPLCγ1 (OCI-AML5, 2.5 μM, only 72 hours). Besides, the “total protein expression of PLCγ1” value was “slight but significant reduction” in the assay with totPLCγ1 (MOLM13, 0.3 μM, 24 hours); “significant reduction” in the assay with totPLCγ1 (Mv4-11, 0.3 μM, 24 and 72 hours). Also, the “percentage of leukemic cells vs. vehicle-treated mice” value in assay [1] (blood) was “significantly higher percentage of leukemic cells”; in assay [1] (bone marrows) it was “no significant differences”; in assay [1] (spleens), “no significant differences”.

These data come from patent US11035008B2, “Biomarkers for cancer” (BERGENBIO ASA, priority 2015, dated 2021).
